These results are taken from BindingDB's records for patent US20250353833 (Universiteit Antwerpen, 2025).

Common to all, as to experiment: Biochemical Evaluation
The target of one test is Dipeptidyl peptidase 2 (Homo sapiens, UniProt Q9UHL4). The text has this:
(§1) Table 1 and 2: The compounds were biochemically evaluated against a panel consisting of all enzymatically active DASH enzymes (DPP4, DPP8, DPP9, DPP2, FAP) and PREP.

In another test the target is T1, Prolyl endopeptidase (Homo sapiens, UniProt P48147).
T1 sequence (P48147 whole entry): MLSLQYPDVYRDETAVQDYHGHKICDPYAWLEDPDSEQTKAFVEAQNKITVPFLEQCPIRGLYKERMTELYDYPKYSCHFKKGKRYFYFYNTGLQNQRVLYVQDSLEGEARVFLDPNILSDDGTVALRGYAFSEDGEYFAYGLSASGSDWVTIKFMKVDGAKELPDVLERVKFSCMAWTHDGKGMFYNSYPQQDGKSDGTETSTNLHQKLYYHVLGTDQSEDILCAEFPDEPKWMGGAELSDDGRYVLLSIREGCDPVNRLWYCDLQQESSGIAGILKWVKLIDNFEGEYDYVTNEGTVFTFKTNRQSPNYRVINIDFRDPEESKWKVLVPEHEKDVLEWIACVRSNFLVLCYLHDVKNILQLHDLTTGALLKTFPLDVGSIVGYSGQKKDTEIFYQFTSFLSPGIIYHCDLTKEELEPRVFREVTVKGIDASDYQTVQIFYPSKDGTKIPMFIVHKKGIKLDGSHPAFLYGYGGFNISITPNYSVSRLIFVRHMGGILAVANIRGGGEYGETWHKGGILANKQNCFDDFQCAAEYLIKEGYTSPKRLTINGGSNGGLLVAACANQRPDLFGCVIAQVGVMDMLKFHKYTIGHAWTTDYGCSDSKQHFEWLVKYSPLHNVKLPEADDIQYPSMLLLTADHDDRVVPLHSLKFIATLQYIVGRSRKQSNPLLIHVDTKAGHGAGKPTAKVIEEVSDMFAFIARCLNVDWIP
Description: as §1

The target of a further test is T2, Prolyl endopeptidase FAP (Homo sapiens, UniProt Q12884).
T2 sequence (Q12884 whole entry): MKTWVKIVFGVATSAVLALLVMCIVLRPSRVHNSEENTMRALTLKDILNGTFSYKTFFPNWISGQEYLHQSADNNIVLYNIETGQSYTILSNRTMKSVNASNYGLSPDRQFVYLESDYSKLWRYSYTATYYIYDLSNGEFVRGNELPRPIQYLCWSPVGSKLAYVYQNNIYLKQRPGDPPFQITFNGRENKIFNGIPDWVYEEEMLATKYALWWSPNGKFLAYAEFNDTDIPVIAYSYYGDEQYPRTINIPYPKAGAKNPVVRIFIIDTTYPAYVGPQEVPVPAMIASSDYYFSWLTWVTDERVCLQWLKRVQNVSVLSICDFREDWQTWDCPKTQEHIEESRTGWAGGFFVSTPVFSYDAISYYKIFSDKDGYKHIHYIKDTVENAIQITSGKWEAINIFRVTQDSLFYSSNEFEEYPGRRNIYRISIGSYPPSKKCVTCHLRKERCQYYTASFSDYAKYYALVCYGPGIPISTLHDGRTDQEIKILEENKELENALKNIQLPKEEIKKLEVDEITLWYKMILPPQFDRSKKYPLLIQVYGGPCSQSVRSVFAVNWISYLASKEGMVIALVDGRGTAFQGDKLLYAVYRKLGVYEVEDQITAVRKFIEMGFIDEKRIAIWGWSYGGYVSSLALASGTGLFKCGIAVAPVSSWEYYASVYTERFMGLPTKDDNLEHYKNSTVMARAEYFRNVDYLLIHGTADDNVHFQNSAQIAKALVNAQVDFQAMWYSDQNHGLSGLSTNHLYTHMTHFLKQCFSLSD
Description: as §1

Regarding `CC(C)(C)OC(=O)NC12CC3CC(CC(N)(C3)C1)C2` [US20250353833, Compound 4], the IC50 at Dipeptidyl peptidase 2 was over 5 µM; on Prolyl endopeptidase, over 10 µM; on Prolyl endopeptidase FAP, over 10 µM.
